Patent US12030877B2, “Prostaglandin E synthase inhibitors and methods for utilizing the same” (University of Kentucky Research Foundation, priority 2016, dated 2024)
Read-outs that look alike come from different tables or passages of the source.

Legend:
mPGES-1 [1] = molecular target: T1, mPGES-1 (Homo sapiens, UniProt O14684); conditions: background, cited from earlier work
T1 sequence (O14684 1-152): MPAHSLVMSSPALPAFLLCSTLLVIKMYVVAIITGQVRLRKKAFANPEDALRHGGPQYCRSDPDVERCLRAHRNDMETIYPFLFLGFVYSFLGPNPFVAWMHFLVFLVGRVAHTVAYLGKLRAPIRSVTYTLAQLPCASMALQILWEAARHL

mPGES-1 Mouse enzyme = molecular target: T2, mPGES-1 Mouse enzyme (Mus musculus, UniProt Q9JM51); assay: mPGES-1 enzyme activity assay (PGE2 enzyme immunoassay), mouse enzyme; type: biochemical; conditions: compound at a concentration of 10 μM; read-out: % inhibition of the compound against mPGES-1, Mouse enzyme
T2 construct: made in house; host or cells: FreeStyle 293-F cells, crude microsomal preparation
T2 sequence (Q9JM51 1-153): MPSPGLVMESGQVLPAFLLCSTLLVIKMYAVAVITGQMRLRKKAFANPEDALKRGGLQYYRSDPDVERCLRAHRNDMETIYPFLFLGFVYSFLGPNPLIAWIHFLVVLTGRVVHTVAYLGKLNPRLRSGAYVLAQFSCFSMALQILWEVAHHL
Outline: (§1)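 Crude microsomal enzyme from transfected FreeStyle 293-F cells, preincubated 15 min at room temperature with compound in phosphate pH 7.2 with GSH. Reaction started with 1 μM PGH2, stopped after 30 s with SnCl2; non-enzymatic background without enzyme. PGE2 by enzyme immunoassay; IC50 computed.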

mPGES-1 [2] = molecular target: T1, mPGES-1; assay: mPGES-1 enzyme activity assay (PGE2 enzyme immunoassay), human enzyme; type: biochemical; design: made in house; host or cells: FreeStyle 293-F cells, crude microsomal preparation; conditions: recombinant microsomal enzyme; means ± SD, triplicate; read-out: IC50 against mPGES-1, Human enzyme
Outline: as §1

Compound	IC50 (mPGES-1 [1]; literature refs 20-22, read-out: IC50 for inhibition of mPGES-1) [nM]	IC50 for inhibition of mPGES-1 (in words) (mPGES-1 [1]; literature ref 20, probably competing with glutathione)	inhibition at 10 µM (mPGES-1 Mouse enzyme) [%]	IC50 (mPGES-1 [2]) [nM]
CSc1ccc(/C=C2/C(C)=C(CC(=O)O)c3cc(F)ccc32)cc1	80000	–	–	–
CCCCC/C=C\C\C=C/C=C/C=C/[C@@H](SC[C@H](NC(=O)CC[C@H](N)C(=O)O)C(=O)NCC(=O)O)[C@@H](O)CCCC(=O)O [Leukotriene C4]	–	micromolar	–	–
CCCCCCOc1ccc(-c2nn(-c3ccc(Cl)cc3)cc2/C=C(/C#N)C(=O)O)cc1 [VII-15]	–	–	48	83 ± 30
CCCCCCCCOc1ccc(-c2nn(-c3ccccc3)cc2/C=C(/C#N)C(=O)O)cc1 [VII-16]	–	–	46	209 ± 42
CCCCCCCCOc1ccc(-c2nn(-c3ccc(Cl)cc3)cc2/C=C(/C#N)C(=O)O)cc1 [VII-17]	–	–	29	90 ± 15
CCCCCCCCCCOc1ccc(-c2nn(-c3ccccc3)cc2/C=C(/C#N)C(=O)O)cc1 [VII-18]	–	–	4.3	197 ± 32
CCCCCCCCCCOc1ccc(-c2nn(-c3ccc(Cl)cc3)cc2/C=C(/C#N)C(=O)O)cc1 [VII-19]	–	–	4.6	97 ± 15
N#C/C(=C/c1cn(-c2ccccc2)nc1-c1ccc(OCc2ccccc2)cc1)C(=O)O [VII-20]	–	–	16	806 ± 162
